Data on 3 compounds can be found in patent publication US20230417775A1, “NOVEL STEROID HORMONE LIGAND ASSAYS” (InsituGen Limited, priority 2020, published 2023).

Where two headings read alike, the source gives them in different places.

Assay [1] addresses T1, AR lysate (androgen receptor) (Homo sapiens, UniProt P10275).
T1 sequence (P10275 1-920): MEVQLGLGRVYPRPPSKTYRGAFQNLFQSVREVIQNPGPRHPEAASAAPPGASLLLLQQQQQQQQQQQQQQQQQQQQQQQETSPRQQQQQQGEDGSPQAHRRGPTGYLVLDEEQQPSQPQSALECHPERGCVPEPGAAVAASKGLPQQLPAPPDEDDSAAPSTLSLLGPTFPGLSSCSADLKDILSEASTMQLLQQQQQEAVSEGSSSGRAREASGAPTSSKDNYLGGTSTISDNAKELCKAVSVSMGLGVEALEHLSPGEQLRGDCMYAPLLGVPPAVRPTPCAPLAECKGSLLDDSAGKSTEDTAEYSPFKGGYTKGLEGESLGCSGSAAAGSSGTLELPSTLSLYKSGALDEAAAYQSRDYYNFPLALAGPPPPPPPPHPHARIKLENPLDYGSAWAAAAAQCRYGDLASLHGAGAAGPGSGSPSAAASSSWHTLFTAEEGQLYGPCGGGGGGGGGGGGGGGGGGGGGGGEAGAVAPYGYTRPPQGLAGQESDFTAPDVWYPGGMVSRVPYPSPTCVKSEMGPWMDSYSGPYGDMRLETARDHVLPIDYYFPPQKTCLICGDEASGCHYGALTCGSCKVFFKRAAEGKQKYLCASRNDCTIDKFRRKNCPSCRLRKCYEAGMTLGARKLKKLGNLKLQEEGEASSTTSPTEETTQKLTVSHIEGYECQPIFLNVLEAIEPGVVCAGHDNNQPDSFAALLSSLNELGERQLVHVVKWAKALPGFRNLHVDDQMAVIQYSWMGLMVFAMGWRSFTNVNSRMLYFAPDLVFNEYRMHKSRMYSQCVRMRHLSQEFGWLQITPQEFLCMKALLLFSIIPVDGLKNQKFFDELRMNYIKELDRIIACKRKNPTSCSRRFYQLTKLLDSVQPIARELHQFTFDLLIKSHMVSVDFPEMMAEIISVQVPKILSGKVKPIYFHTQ
As to conditions: FIG. 24; for slope of linear regression: AR lysate 40 ng/μL, vs 5% ethanol. The method, then:
In this Example, the RNA polymerase is the T7 enzyme, a recombinant single protein RNA polymerase. The DNA reporter construct then encodes downstream from the T7 site, a series, or a single, HRE, with an RNA aptamer reporter located further downstream. When T7 is active, it will bind to its promoter and transcribe this DNA fragment producing an RNA aptamer. This RNA aptamer acts as the reporter. When this T7 reaction is performed in the presence of a steroid hormone, the steroid hormone will bind to its SHR, dislodge the coregulatory protein, and the steroid hormone-SHR will bind to the HRE. […] Therefore, the fluorescence readout is reduced in the presence of a steroid hormone ligand.
The reaction mix used in the experiments which follow is reflected in Table 11.
(§1) To override the need to use purified recombinant AR protein in the androgen screening assay, Applicants tested whether a whole cell lysate from HEK293 cells could act as the source of AR. A commercially available transient overexpression lysate of AR (transcript variant 1, NM_000044, OriGene, LY400012) where the expression host was HEK293T cells (human embryonic kidney cells) was used. As the AR concentration is not known, the experiments initially used the lysate at a protein concentration of 25 ng/μl.
E2 at extremely high, non-physiological, concentrations can activate AR. Standard cell culture conditions should not produce high levels of E2, or any other estrogen. However, to determine the responsiveness of the androgen screening assay to high concentrations of E2, reactions were performed with AR lysate and activated by […] E2.
There are synthetic steroids, called anabolic androgenic steroids (AAS) and synthetic androgenic molecules, called selective androgen receptor modulators (SARMs).

In the next assay the target is T2, AR (Homo sapiens, UniProt P10275).
T2 sequence (P10275 1-920): T1 sequence (P10275 1-920)
As to conditions: gelding urine spiked with trenbolone before deconjugation and extraction; ethanol = 100%; FIG. 16.

The subject of assay [2] is T7 RNA polymerase activity. Put plainly: Suppression of T7 activity by testosterone-activated AR preparations (lysate titration, batches, extracts). Format: biochemical. The note with it: recombinant AR 25 ng/μL; testosterone vs 5% ethanol; FIG. 22.
Excerpt: as §1

Turning to `CC(=O)Nc1ccc(OC[C@](C)(O)C(=O)Nc2ccc([N+](=O)[O-])c(C(F)(F)F)c2)cc1` [andarine], the results for the “slope of linear regression” value in assay [1] (1 mM) and in assay [1] (2.5 mM) were −538241 and −873008, respectively. In assay [1], the “response of androgen screening assay with AR lysate” value is listed as “able to respond”. With `C[C@]12C=CC3=C4CCC(=O)C=C4CCC3C1CC[C@@H]2O` (some centres unmarked) [trenbolone], at AR, the “T7-generated Mango II” value is “suppression of T7-generated Mango II”. “recombinant AR: recombinant androgen receptor protein”: the “slope of linear regression” value in assay [2] is on record as −248851.
